Test results from paper PMC5350466 (mBio, 2017).
Converted amounts (≈) assume the structure as drawn.

Assays:
ΔbcnA pbcnA2 (Pa) = test: MIC by E test; assay type: cell-based, Burkholderia cenocepacia; settings: 24 h
ΔbcnA pbcnA3 (Pa) = test: MIC by E test; assay type: cell-based, Burkholderia cenocepacia; settings: 24 h
ΔbcnA pbcnA (MTb) = assay type: cell-based, Burkholderia cenocepacia
ΔbcnA pbcnA = test: MIC by E test; assay type: cell-based, Burkholderia cenocepacia; settings: 24 h
ΔbcnA pbcnA1 (Pa) = test: MIC by E test; assay type: cell-based, Burkholderia cenocepacia; settings: 24 h
BcnB = test: In vitro binding of Nile red to BcnB; set-up: species or system Burkholderia cenocepacia; settings: 1.5 µM BcnB vs 1.5 µM BcnA
Method: In vitro binding assays were performed as previously described ([23]), with a few modifications. Purified BCNs were prepared in phosphate-buffered saline (PBS, pH 7.4). Phospholipids and Nile red were prepared in DMSO. […] All spectra were corrected for background fluorescence determined from probe-into-buffer titrations. Fluorescence was measured with a Cary Eclipse fluorescence spectrophotometer (Varian) set at an excitation wavelength (λex) specific for each probe, as follows: Nile red, 550 nm; BODIPY phospholipids, 500 nm for fatty acyl BODIPY-labeled phosphocholine and 505 nm for head group BODIPY-labeled phosphoethanolamine. The emission spectrum for each probe was collected across the following wavelengths (λem): Nile red, 590 to 750 nm; BODIPY phospholipids, 510 to 665 nm. The background-corrected binding fluorescence with each probe was fitted to a one-site binding model as previously described for human AGP ([23]). The equilibrium binding affinity constant for the probe-BCN complex (Kd), the probe concentration needed to achieve half-maximum binding at equilibrium, was determined by nonlinear least-squares regression analysis of the binding isotherms with GraphPad Prism v 5.0 software (GraphPad Software, Inc.).

[1] = target: Burkholderia cenocepacia BcnB (BCAL3310) (Burkholderia cenocepacia); test: SEC-MALS; proteins diluted to 1 mg/ml in 20 mM Tris (pH 7.5)-100 mM NaCl
[2] = target: Burkholderia cenocepacia BcnA (BCAL3311) (Burkholderia cenocepacia); test: other; competition with Nile red, PBS

Molecule | MIC by Etest, ΔbcnA pbcnA2 (Pa) (ΔbcnA pbcnA2 (Pa)) [µg/mL] | MIC by Etest, ΔbcnA pbcnA3 (Pa) (ΔbcnA pbcnA3 (Pa)) [µg/mL] | MIC by Etest, ΔbcnA pbcnA (MTb) (ΔbcnA pbcnA (MTb)) [µg/mL] | MIC by Etest, ΔbcnA pbcnA (ΔbcnA pbcnA) [µg/mL] | MIC by Etest, ΔbcnA pbcnA1 (Pa) (ΔbcnA pbcnA1 (Pa)) [µg/mL] | other results
CC(C)(O/N=C(\C(=O)N[C@@H]1C(=O)N2C(C(=O)[O-])=C(C[n+]3ccccc3)CS[C@H]12)c1csc(N)n1)C(=O)O [Ceftazidime, ceftazidime] | 8 (≈ 14.6 µM) | 8 (≈ 14.6 µM) | 8 (≈ 14.6 µM) | 8 (≈ 14.6 µM) | 8 (≈ 14.6 µM) | –
O=C(O)c1cn(C2CC2)c2cc(N3CCNCC3)c(F)cc2c1=O [Cipro, ciprofloxacin] | 4 (≈ 12.1 µM) | 4 (≈ 12.1 µM) | 4 (≈ 12.1 µM) | 4 (≈ 12.1 µM) | 4 (≈ 12.1 µM) | –
CCN(CC)c1ccc2nc3c4ccccc4c(=O)cc-3oc2c1 [Nile red] | – | – | – | – | – | affinity of BcnB binding to Nile red, fold lower than that of BcnA (BcnB): ~ 20 fold
CO[C@H]1/C=C/O[C@@]2(C)Oc3c(C)c(O)c4c(O)c(c(/C=N/N5CCN(C)CC5)c(O)c4c3C2=O)NC(=O)/C(C)=C\C=C\[C@H](C)[C@H](O)[C@@H](C)[C@@H](O)[C@@H](C)[C@H](OC(C)=O)[C@@H]1C [Rifampicin, rifampin] | 32 (≈ 38.9 µM) | ≥ 64 | ≥ 64 | ≥ 64 | ≥ 64 | –
Burkholderia cenocepacia BcnB (BCAL3310) (natural protein) | – | – | – | – | – | stoichiometry N [1]: 2
PmB nonapeptide | – | – | – | – | – | Ki [2]: 5080 µM
polymyxin B | – | – | – | – | – | Ki [2]: 670 µM
